Entries after “also recorded” stand apart in the source; their conditions may differ.
Key:
Iron-corrected T1 (cT1) = test: Phase 1 12-week NAFLD study (Example 1): iron-corrected T1 (cT1) responder analysis; format: in vivo, human; conditions: week 12
Excerpt: (§1) Provided herein is disclosure of a Phase 1, multicenter, randomized, double-blind, placebo-controlled study to assess the effects of Pemvidutide (also termed herein as ALT-801), the safety of Pemvidutide and effects on hepatic fat fraction, anthropometric parameters, lipid metabolism, inflammatory markers and fibrosis markers in diabetic and non-diabetic (type 2 diabetes) overweight and obese (BMI 28.0 kg/m^2) subjects with NAFLD. This study was designed to assess changes in hepatic fat fraction by MRI-PDFF (magnetic resonance imaging-proton density fat fraction) in diabetic and non-diabetic overweight and obese subjects with NAFLD after 12 weeks of ALT-801 treatment. The trial was conducted without adjunctive diet and exercise interventions. The study assessed changes in body weight, lipid metabolism, metabolic markers, and inflammatory markers and safety and tolerability of ALT-801 after 12 weeks of treatment. Subjects were stratified for the presence or absence of diabetes at baseline. Fibroscan and cT1 assessments evaluated changes in liver inflammatory and fibrotic activity at the end of 12 weeks of treatment.
(§2) The study, described in this example, was carried out in 94 subjects overweight and obese (body mass index [BMI] ≥28.0 kg/m^2) Type 2 diabetic and non-diabetic subjects with nonalcoholic fatty liver disease (NAFLD) over about 4.5 months, including up to a 35-day screening period, and 85-day treatment period and a 25-day follow-up period, with treatment with ALT-801 (a composition comprising SEQ ID NO.: 1, “study medication”) or placebo administered by subcutaneous (SC) injection once weekly for up to twelve (12) doses.
After providing informed consent, subjects underwent a screening period of up to 35 days. Subjects were instructed on how to maintain their normal diets, alcohol consumption and physical activities and not to start any new diets, supplements, or exercise programs at any time while participating in the study. […]

[1] = Phase 1 12-week NAFLD study (Example 1): safety, tolerability, serum lipids, glycemic control, heart rate; format: in vivo, human; conditions: for AE leading to treatment discontinuation, number of subjects: gastrointestinal intolerance
Excerpt: as §1, §2
The safety objective of this study was to assess the safety and tolerability of ALT-801 in 18-65 years old subjects with NAFLD (NAFLD without significant fibrosis, defined as FibroScan® controlled attenuation parameter (CAP) ≥280 dB/m and liver stiffness measurement (LSM)<10 kPa (i.e., indicating the absence of significant fibrosis), magnetic resonance imaging derived proton density fat fraction (MRI-PDFF) ≥10%), hemoglobin Alc (HbAlc) of less than 9.5%, and alanine aminotransferase (ALT) or aspartate aminotransferase (AST) values of ≤[…]. The pharmacodynamic (PD) objectives of this study were to evaluate the effects of ALT-801 on hepatic fat fraction, anthropometric parameters, lipid metabolism, metabolic markers, inflammatory markers, fibrosis markers, and lipotoxicity markers. The pharmacokinetic (PK) objectives of this study were to evaluate the effects of ALT-801 and metformin exposure (drug interactions) on the subjects (e.g., ALT-801 and metformin concentrations in blood over time).
After providing informed consent, subjects underwent a screening period of up to 35 days. Subjects were instructed on how to maintain their normal diets, alcohol consumption and physical activities and not to start any new diets, supplements, or exercise programs at any time while participating in the study. Counseling was provided on diet and exercise on the Day 1 visit and reinforced at subsequent visits. Study subjects were randomized 1:1:1:1 to one of the following treatment arms: 1) ALT-8011.2 mg SC once weekly for 12 weeks; 2) ALT-8011.8 mg SC once weekly for 12 weeks; 3) ALT-801 0.6 mg SC at week 1, 1.2 mg SC at week 2, 1.8 mg SC once weekly for 2 weeks (weeks 3 and 4), and 2.4 mg SC once weekly for weeks 5 through 12; or, 4) placebo SC once weekly for 12 weeks. Subjects were stratified by presence or absence of diabetes at baseline. Subjects in the treatment arm with a final therapeutic dose of 2.4 mg underwent a rapid 4-week dose escalation to improve tolerability and reduce the possibility of adverse events. […] See FIG. 7, second 2.4 mg column as compared to the first 2.4 mg column (this study). See WO 2022/125598. […]

Compound: CC[C@H](C)[C@H](NC(=O)[C@H](Cc1ccccc1)NC(=O)[C@H](CCC(=O)O)NC(=O)[C@@H]1CCCCNC(=O)CC[C@H](NC(=O)[C@H](CC(=O)O)NC(=O)[C@H](CC(C)C)NC(=O)[C@H](Cc2ccc(O)cc2)NC(=O)[C@H](CCCCN)NC(=O)[C@H](CO)NC(=O)[C@H](Cc2ccc(O)cc2)NC(=O)[C@H](CC(=O)O)NC(=O)[C@H](CO)NC(=O)[C@@H](NC(=O)[C@H](Cc2ccccc2)NC(=O)[C@@H](NC(=O)CNC(=O)[C@H](CCC(N)=O)NC(=O)C(C)(C)NC(=O)[C@@H](N)Cc2c[nH]cn2)[C@@H](C)O)[C@H](C)O)C(=O)N[C@@H](CCCCNC(=O)C2O[C@@H](OCCCCCCCCCCCCCCCCCC(=O)O)C(O)C(O)[C@@H]2O)C(=O)N[C@@H](C)C(=O)N[C@@H](C)C(=O)N1)C(=O)N[C@@H](CCC(N)=O)C(=O)N[C@@H](Cc1c[nH]c2ccccc12)C(=O)N[C@@H](CC(C)C)C(=O)N[C@@H](CC(C)C)C(=O)N[C@@H](CCC(N)=O)C(=O)N[C@H](C(N)=O)[C@@H](C)O (stereo partly drawn) [ALT-801, Pemvidutide]
- proportion of subjects showing >=80 ms for Iron-corrected T1 (cT1) (Iron-corrected T1 (cT1); 1.2 mg): 87.5%
- proportion of subjects showing >=80 ms for Iron-corrected T1 (cT1) (Iron-corrected T1 (cT1); 1.8 mg): 83.3%
- proportion of subjects showing >=80 ms for Iron-corrected T1 (cT1) (Iron-corrected T1 (cT1); 2.4 mg): 85.7%
- AE leading to treatment discontinuation, rate ([1]; 1.8 mg arm, 12 weeks): 4.3%
- AE leading to treatment discontinuation, number of subjects ([1]; 1.8 mg arm, 12 weeks): 1
- AE leading to treatment discontinuation, rate ([1]; 2.4 mg arm, 12 weeks): 4.2%
- AE leading to treatment discontinuation, number of subjects ([1]; 2.4 mg arm, 12 weeks): 1
- AEs leading to treatment discontinuation (in words) ([1]; 12 weeks): very low rates
- clinically significant ALT elevations (3-fold or greater the upper limit of normal) ([1]; 12 weeks): No clinically significant ALT elevations; also recorded: no three-fold or greater ALT elevations were observed
- glycemic control (HbA1c, fasting glucose) ([1]; 12 weeks): unaffected
- increases in heart rate (HR) ([1]; 12 weeks): 1-3 beat-per-minute (bpm)
- serious and severe adverse events ([1]; 12 weeks treatment): No serious adverse events (AEs), severe AEs were observed; also recorded: no severe or serious AEs were observed
- symptoms experienced by subjects (severity) ([1]; 12 weeks treatment): predominantly mild and transient
- serum lipids ([1]; after 12 weeks): not significantly altered
- tolerability ([1]; each treatment arm (FIG. 7)): well tolerated
